Data taken from PMC5677544 (Analytical chemistry, 2017).
Read-outs that look alike come from different tables or passages of the source. Each block holds one compound with its values, some of them ahead of it.

Experiments:
Assay in all cases: ESI-MS titration
Type in all cases: binding
β-2-microglobulin (β2m) [1] = molecular target: T1, β-2-microglobulin (β2m) (Homo sapiens, UniProt P61769)
β-2-microglobulin (β2m) [2] = molecular target: T1, β-2-microglobulin (β2m); remark: listed apart in the source
β-2-microglobulin (β2m) [3] = molecular target: T1, β-2-microglobulin (β2m); remark: listed apart in the source

Kd (β-2-microglobulin (β2m) [1]): 40 ± 2 µM
Structure (SMILES): Cc1ccc(C(=O)Nc2ccc(S(=O)(=O)O)c3cc(S(=O)(=O)O)cc(S(=O)(=O)O)c23)cc1NC(=O)c1cccc(NC(=O)Nc2cccc(C(=O)Nc3cc(C(=O)Nc4ccc(S(=O)(=O)O)c5cc(S(=O)(=O)O)cc(S(=O)(=O)O)c45)ccc3C)c2)c1 [suramin]

Kd (β-2-microglobulin (β2m) [2]): 250 ± 25 µM
Structure (SMILES): CO[C@H]1/C=C/O[C@@]2(C)Oc3c(C)c(O)c4c(O)c(cc(O)c4c3C2=O)NC(=O)/C(C)=C\C=C\[C@H](C)[C@H](O)[C@@H](C)[C@@H](O)[C@@H](C)[C@H](OC(C)=O)[C@@H]1C [rifamycin SV]

Kd (β-2-microglobulin (β2m) [3]): 200 ± 20 µM
Structure (SMILES): C[C@H]1c2cccc(O)c2C(=O)C2=C(O)[C@]3(O)C(=O)C(C(N)=O)=C(O)[C@@H](N(C)C)[C@@H]3[C@@H](O)[C@@H]21 [doxycycline]
